Source: US9593108B2, “Compounds and methods for antiviral treatment” (PTC Therapeutics, Inc., priority 2009, dated 2017)

How the values were obtained:
[1] = system: HCV replicon RNA (GenBank Accession No. AJ242654); assay: HCV Replicon Assay (replicon RNA reduction and/or Fluc reporter signal); type: cell-based, Hepatitis C virus; details: Hepatitis C virus, 72 h, replicon-containing cells cultured with test compound for up to 3 days
Summary of the method: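 IC50 values mostly reflect the drop in replicon RNA, though Fluc reporter signal may also be used. Compound incubated with cells carrying the bicistronic replicon for as long as 3 days; interferon served as positive control.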

SMILES | IC50 [1] [nM] | melting point [°C]
CC1(NS(=O)(=O)c2ccc(-c3c(C#N)c4cc(C5CC5)cnc4n3C3CCC3)cc2)CC1 [Cpd 127, 4-(3-cyano-1-cyclobutyl-5-cyclopropyl-1H-pyrrolo[2,3-b]pyridin-2-yl)-N-(1-methylcyclopropyl)benzenesulfonamide] | < 500 | 152 to 161
CC1(NS(=O)(=O)c2ccc(-c3c(C#N)c4cc(C5CC5)cnc4n3C3CCC3)nc2)CC1 [Cpd 128, 6-(3-cyano-1-cyclobutyl-5-cyclopropyl-1H-pyrrolo[2,3-b]pyridin-2-yl)-N-(1-methylcyclopropyl)pyridine-3-sulfonamide] | < 500 | 178 to 185
CC1(NS(=O)(=O)c2cnc(-c3c(C#N)c4cc(C5CC5)cnc4n3C3CCC3)nc2)CC1 [Cpd 129, 2-(3-cyano-1-cyclobutyl-5-cyclopropyl-1H-pyrrolo[2,3-b]pyridin-2-yl)-N-(1-methylcyclopropyl)pyrimidine-5-sulfonamide] | < 500 | 161 to 169
N#Cc1c(-c2ccc(S(=O)(=O)NC(CF)CF)cc2)n(C2CCC2)c2ncc(C3CC3)cc12 [Cpd 130, 4-(3-cyano-1-cyclobutyl-5-cyclopropyl-1H-pyrrolo[2,3-b]pyridin-2-yl)-N-(1,3-difluoropropan-2-yl)benzenesulfonamide] | < 500 | 225 to 230
N#Cc1c(-c2ncc(S(=O)(=O)NC(CF)CF)cn2)n(C2CCC2)c2ncc(C3CC3)cc12 [Cpd 132, 2-(3-cyano-1-cyclobutyl-5-cyclopropyl-1H-pyrrolo[2,3-b]pyridin-2-yl)-N-(1,3-difluoropropan-2-yl)pyrimidine-5-sulfonamide] | < 500 | 189 to 197
N#Cc1c(-c2ccc(S(=O)(=O)NC3CC3)cn2)n(C2CCC2)c2ncc(C3CC3)cc12 [Cpd 133, 6-(3-cyano-1-cyclobutyl-5-cyclopropyl-1H-pyrrolo[2,3-b]pyridin-2-yl)-N-cyclopropylpyridine-3-sulfonamide] | < 500 | 169 to 174
N#Cc1c(-c2ccc(S(=O)(=O)NC3CCC3)cn2)n(C2CCC2)c2ncc(C3CC3)cc12 [Cpd 134, 6-(3-cyano-1-cyclobutyl-5-cyclopropyl-1H-pyrrolo[2,3-b]pyridin-2-yl)-N-cyclobutylpyridine-3-sulfonamide] | < 500 | 189 to 197
CC(C)NS(=O)(=O)c1cnc(-c2c(C#N)c3cc(C4CC4)cnc3n2C2CCC2)nc1 [Cpd 136, 2-(3-cyano-1-cyclobutyl-5-cyclopropyl-1H-pyrrolo[2,3-b]pyridin-2-yl)-N-(propan-2-yl)pyrimidine-5-sulfonamide] | < 500 | 187 to 195
Cc1ccc2c(C#N)c(-c3ncc(S(=O)(=O)N[C@@H](C)C(F)(F)F)cn3)n(C3CCC3)c2n1 [Cpd 137, 2-(3-cyano-1-cyclobutyl-6-methyl-1H-pyrrolo[2,3-b]pyridin-2-yl)-N-[(2S)-1,1,1-trifluoropropan-2-yl]pyrimidine-5-sulfonamide] | < 500 | 207 to 212
Cc1ccc2c(C#N)c(-c3ncc(S(=O)(=O)N[C@H](C)C(F)(F)F)cn3)n(C3CCC3)c2n1 [Cpd 138, 2-(3-cyano-1-cyclobutyl-6-methyl-1H-pyrrolo[2,3-b]pyridin-2-yl)-N-[(2R)-1,1,1-trifluoropropan-2-yl]pyrimidine-5-sulfonamide] | 500 to 2000 | 205 to 209
Cc1ccc2c(C#N)c(-c3ccc(S(=O)(=O)NC4(C(F)(F)F)CC4)cc3)n(C3CCC3)c2n1 [Cpd 140, 4-(3-cyano-1-cyclobutyl-6-methyl-1H-pyrrolo[2,3-b]pyridin-2-yl)-N-[1-(trifluoromethyl)cyclopropyl]benzenesulfonamide] | 500 to 2000 | 205 to 212
Cc1ccc2c(C#N)c(-c3ccc(S(=O)(=O)NC(C)(C)C)cc3)n(C3CCC3)c2n1 [Cpd 141, N-tert-butyl-4-(3-cyano-1-cyclobutyl-6-methyl-1H-pyrrolo[2,3-b]pyridin-2-yl)benzenesulfonamide] | 500 to 2000 | 194 to 200
Cc1ccc2c(C#N)c(-c3ccc(S(=O)(=O)NC(C)(C)C)cn3)n(C3CCC3)c2n1 [Cpd 142, N-tert-butyl-6-(3-cyano-1-cyclobutyl-6-methyl-1H-pyrrolo[2,3-b]pyridin-2-yl)pyridine-3-sulfonamide] | < 500 | 181 to 187
Cc1ccc2c(C#N)c(-c3ccc(S(=O)(=O)NC4(C)CC4)cc3)n(C3CCC3)c2n1 [Cpd 143, 4-(3-cyano-1-cyclobutyl-6-methyl-1H-pyrrolo[2,3-b]pyridin-2-yl)-N-(1-methylcyclopropyl)benzenesulfonamide] | < 500 | 200 to 207
Cc1ccc2c(C#N)c(-c3ncc(S(=O)(=O)NC4(C)CC4)cn3)n(C3CCC3)c2n1 [Cpd 144, 2-(3-cyano-1-cyclobutyl-6-methyl-1H-pyrrolo[2,3-b]pyridin-2-yl)-N-(1-methylcyclopropyl)pyrimidine-5-sulfonamide] | < 500 | 224 to 232
Cc1ccc2c(C#N)c(-c3ccc(S(=O)(=O)NC(CF)CF)cc3)n(C3CCC3)c2n1 [Cpd 145, 4-(3-cyano-1-cyclobutyl-6-methyl-1H-pyrrolo[2,3-b]pyridin-2-yl)-N-(1,3-difluoropropan-2-yl)benzenesulfonamide] | < 500 | 182 to 193
Cc1ccc2c(C#N)c(-c3ccc(S(=O)(=O)NC(CF)CF)cn3)n(C3CCC3)c2n1 [Cpd 146, 6-(3-cyano-1-cyclobutyl-6-methyl-1H-pyrrolo[2,3-b]pyridin-2-yl)-N-(1,3-difluoropropan-2-yl)pyridine-3-sulfonamide] | < 500 | 180 to 188
Cc1ccc2c(C#N)c(-c3ncc(S(=O)(=O)NC(CF)CF)cn3)n(C3CCC3)c2n1 [Cpd 147, 2-(3-cyano-1-cyclobutyl-6-methyl-1H-pyrrolo[2,3-b]pyridin-2-yl)-N-(1,3-difluoropropan-2-yl)pyrimidine-5-sulfonamide] | < 500 | 211 to 217
Cc1ccc2c(C#N)c(-c3ccc(S(=O)(=O)NC4CCC4)cn3)n(C3CCC3)c2n1 [Cpd 148, 6-(3-cyano-1-cyclobutyl-6-methyl-1H-pyrrolo[2,3-b]pyridin-2-yl)-N-cyclobutylpyridine-3-sulfonamide] | < 500 | 151 to 160
C[C@H](NS(=O)(=O)c1ccc(-c2c(C#N)c3ccc(C4CC4)nc3n2C2CCC2)nc1)C(F)(F)F [Cpd 151, 6-(3-cyano-1-cyclobutyl-6-cyclopropyl-1H-pyrrolo[2,3-b]pyridin-2-yl)-N-[(2S)-1,1,1-trifluoropropan-2-yl]pyridine-3-sulfonamide] | < 500 | 170 to 176
C[C@@H](NS(=O)(=O)c1ccc(-c2c(C#N)c3ccc(C4CC4)nc3n2C2CCC2)nc1)C(F)(F)F [Cpd 152, 6-(3-cyano-1-cyclobutyl-6-cyclopropyl-1H-pyrrolo[2,3-b]pyridin-2-yl)-N-[(2R)-1,1,1-trifluoropropan-2-yl]pyridine-3-sulfonamide] | < 500 | 170 to 176
C[C@@H](NS(=O)(=O)c1cnc(-c2c(C#N)c3ccc(C4CC4)nc3n2C2CCC2)nc1)C(F)(F)F [Cpd 154, 2-(3-cyano-1-cyclobutyl-6-cyclopropyl-1H-pyrrolo[2,3-b]pyridin-2-yl)-N-[(2R)-1,1,1-trifluoropropan-2-yl]pyrimidine-5-sulfonamide] | < 500 | 244 to 249
CCc1cnc2c(c1)c(C#N)c(-c1ccc(S(=O)(=O)N[C@@H](C)C(F)(F)F)cc1)n2C1CCC1 [Cpd 155, 4-(3-cyano-1-cyclobutyl-5-ethyl-1H-pyrrolo[2,3-b]pyridin-2-yl)-N-[(2S)-1,1,1-trifluoropropan-2-yl]benzenesulfonamide] | < 500 | 194 to 201
CCc1cnc2c(c1)c(C#N)c(-c1ccc(S(=O)(=O)N[C@H](C)C(F)(F)F)cc1)n2C1CCC1 [Cpd 156, 4-(3-cyano-1-cyclobutyl-5-ethyl-1H-pyrrolo[2,3-b]pyridin-2-yl)-N-[(2R)-1,1,1-trifluoropropan-2-yl]benzenesulfonamide] | 500 to 2000 | 194 to 201
C[C@H](NS(=O)(=O)c1ccc(-c2c(C#N)c3ccc(Cl)nc3n2C2CCC2)nc1)C(F)(F)F [Cpd 161, 6-(6-chloro-3-cyano-1-cyclobutyl-1H-pyrrolo[2,3-b]pyridin-2-yl)-N-[(2S)-1,1,1-trifluoropropan-2-yl]pyridine-3-sulfonamide] | < 500 | 172 to 178
C[C@@H](NS(=O)(=O)c1ccc(-c2c(C#N)c3ccc(Cl)nc3n2C2CCC2)nc1)C(F)(F)F [Cpd 162, 6-(6-chloro-3-cyano-1-cyclobutyl-1H-pyrrolo[2,3-b]pyridin-2-yl)-N-[(2R)-1,1,1-trifluoropropan-2-yl]pyridine-3-sulfonamide] | < 500 | 172 to 178
Cc1ncc2c(C#N)c(-c3ccc(S(=O)(=O)N[C@@H](C)C(F)(F)F)cn3)n(C3CCCC3)c2n1 [Cpd 163, 6-(5-cyano-7-cyclopentyl-2-methyl-7H-pyrrolo[2,3-d]pyrimidin-6-yl)-N-[(2S)-1,1,1-trifluoropropan-2-yl]pyridine-3-sulfonamide] | 500 to 2000 | 212 to 215
Cc1ncc2c(C#N)c(-c3ccc(S(=O)(=O)N[C@@H](C)C(F)(F)F)cc3)n(C3CCCC3)c2n1 [Cpd 164, 4-(5-cyano-7-cyclopentyl-2-methyl-7H-pyrrolo[2,3-d]pyrimidin-6-yl)-N-[(2S)-1,1,1-trifluoropropan-2-yl]benzenesulfonamide] | 500 to 2000 | 202 to 204
